# Laboratory results: publication PMC6072853 (Frontiers in Pharmacology, 2018)
# How the values were obtained:
# HeLa cells [1] = assay: Lactate dehydrogenase (LDH) cytotoxicity assay; assay type: cell-based, human; conditions: 24 h
# Description: The direct cytotoxic effects of the test agents were determined by a lactate dehydrogenase (LDH) assay. Cells were seeded onto 96-well microplates at a density of 5,000 cells/well and were incubated overnight, after which the medium containing the test compounds at proper concentrations was added. After incubation for 24 h, the activity of LDH released by the treated cells was determined by a commercially available colorimetric kit according to the manufacturer’s instructions (Hoffmann-La Roche Ltd., Basel, Switzerland). Untreated cells served as control, while detergent Triton X-100 and CIS were used as reference agents.
# HeLa cells [2] = assay: Flow cytometric analysis of cell cycle; assay type: cell-based, human
# Description: The distribution of cells in different cell cycle phases (subG1, G1, S and G2/M) was analyzed via the measurement of cellular DNA content by flow cytometry. HeLa cells were seeded onto 6-well plates and allowed to stand for an overnight. The cells were treated with the selected compounds for 24, 48, or 72 h. Then cells were harvested, washed and fixed in ice cold 70% ethanol and stored at −20°C at least for an hour. Next, a DNA staining solution (containing distilled water, propidium-iodide, Triton-X100, sodium citrate, and ribonuclease-A) was added to each sample and stored in the dark at room temperature for an hour. Stained cells were analyzed by flow cytometry (Partec CyFlow, Partec GmbH, Munster, Germany) with at least 20,000 cells being evaluated for each analysis. Data processing was performed using the ModFit LT 3.3.11 software (Verity Software House, Topsham, ME, United States).
# HeLa = assay: MTT antiproliferative assay, HeLa; assay type: cell-based, human; conditions: Homo sapiens, 72 h; for inhibition at 10 µM / inhibition at 30 µM: read-out: Growth inhibition (%) ± SEM; for IC50: read-out: calculated IC50 value
# Description: (§1) Gynecological cancer cell lines, including ovarian (A2780), cervical (HeLa), and breast cancer cell lines (MCF7, T47D, MDA-MB-231, and MDA-MB-361) were purchased from the European Collection of Authenticated Cell Cultures (ECACC, Salisbury, United Kingdom). Additional cervical cell lines (SiHa and C33A) and a non-cancerous immortalized, mammary gland epithelial cell line (hTERT-HME1) were purchased from LGC Standards GmbH (Wesel, Germany). Non-cancerous fibroblast cells (MRC-5) were also obtained from the ECACC. All cells were cultured in minimal essential medium supplemented with 10% fetal bovine serum, 1% non-essential amino acids, and 1% antibiotic-antimycotic mixture, in humidified air containing 5% CO2 at 37°C. Immortalized hTERT-HME1 cells were maintained in serum-free mammary epithelial cell growth medium (MEGM) supplemented with insulin, human epidermal growth factor (hEGF), hydrocortisone, bovine pituitary extract, and an antibiotic-antimycotic mixture. All the medium and supplements were purchased from Lonza Group Ltd. (Basel, Switzerland).
# (§2) The antiproliferative properties of the compounds were assessed by an MTT assay ([Mosmann, 1983]). Cells were seeded onto 96-well microplates at a density of 10,000 cells/well (MDA-MB-361 and C33A) or 5,000 cells/well (all other cell lines). After an overnight incubation, fresh medium containing the test compounds (at a concentration of 10 or 30 μM) was added. After incubation for 72 h at 37°C in humidified air, [3-(4,5-dimethylthiazol-2-yl)-2,5-diphenyltetrazolium bromide] (MTT) solution (5 mg/mL) was added. Purple formazan crystals were formed by the living cells during a 4 h contact period, which were assayed by spectrophotometry after having been dissolved in 100 μL DMSO. Untreated cells served as control, and cisplatin (CIS) (Ebewe Pharma GmbH, Unterach, Austria) was used as a reference compound. […] Two independent measurements were performed with five parallel wells. To present preliminary data concerning tumor selectivity of the potent compounds, the procedure was repeated on MRC-5 fibroblast and hTERT-HME1 immortalized mammary gland epithelial cells under the same experimental conditions.
# C33A = assay: MTT antiproliferative assay, C33A; assay type: cell-based, human; conditions: Homo sapiens, C-33-A, 72 h, read-out: Growth inhibition (%) ± SEM
# Description: as §1, §2
# MDA-MB-361 = assay: MTT antiproliferative assay, MDA-MB-361; assay type: cell-based, human; conditions: Homo sapiens, 72 h, read-out: Growth inhibition (%) ± SEM; for inhibition at 10 µM: MDA-MB-361, 10 μM; for inhibition at 30 µM: MDA-MB-361, 30 μM
# Description: as §1, §2
# tubulin = assay: Tubulin polymerization assay (cell-free); assay type: biochemical; conditions: cell-free system, compared to untreated control
# Description: In order to determine the direct action of the test compounds on the microtubular system, an in vitro tubulin polymerization assay was performed using a commercially available kit (Cytoskeleton Inc., Denver, CO, United States) in accordance with the provider’s instructions. The assay reactions were performed on a pre-warmed (37°C), UV-transparent 96-well microplate. Ten microliters of the test solutions were placed on the wells supplemented with 2 mM MgCl2, 0.5 mM ethylene glycol tetraacetic acid (EGTA), 1 mM guanosine triphosphate (GTP) and 10.2% glycerol. Ten microliters of general tubulin buffer was used as untreated control, and paclitaxel (PAC) served as the reference compound. The polymerization reaction was initiated by adding 100 μL of 3.0 mg/mL tubulin in 80 mM PIPES, pH 6.9, to each sample. Absorbance of the samples was measured per minute, at 340 nm, using a 60-min kinetic measurement protocol. Each sample was prepared in two parallels. To characterize the process, polymerization curves were fitted to the measured data. The highest difference between the absorbances measured at two consecutive time points was regarded as Vmax (Δabsorbance/min) for the tested compound. A clinically applied reference agent, PAC was used at a relatively high concentration (10 μM) as recommended by the manufacturer. […]. […]
# caspase-8 = assay: Caspase-8 activity colorimetric assay; assay type: cell-based, human; conditions: HeLa
# Description: In order to detect, whether the test compounds induce programmed cell death, the activity of caspase-3 was determined by a colorimetric assay. To elucidate the exact pathway of apoptosis, activities of caspase-8 and caspase-9 were additionally determined by colorimetric kits. In all cases approximately 12 million cells were treated with appropriate concentrations of the compounds for 24 or 72 h. After the treatment, the cells were scraped and the enzyme activities were determined by means of colorimetric assays mentioned above. All kits were purchased from Abnova Corp. (Taipei, Taiwan) and used in accordance with the instructions of the manufacturer.
# hTERT-HME1 = assay: MTT assay, immortalized mammary gland epithelial cells hTERT-HME1; assay type: cell-based, human; conditions: Homo sapiens; for inhibition at 10 µM: hTERT-HME1, 10 μM; for inhibition at 10 µM / inhibition at 30 µM: 72 h, read-out: Growth inhibition (%) ± SEM; for inhibition at 30 µM: hTERT-HME1, 30 μM
# Description: as §1, §2
# A2780 = assay: MTT antiproliferative assay, A2780; assay type: cell-based, human; conditions: Homo sapiens, 72 h, read-out: Growth inhibition (%) ± SEM; for inhibition at 10 µM: A2780, 10 μM; for inhibition at 30 µM: A2780, 30 μM
# Description: as §1, §2
SMILES,LDH release (HeLa cells [1]; 1.5 μM),effect on cell cycle phase distribution (HeLa cells [2]; 24 h),effect on cell cycle phase distribution (HeLa cells [2]; 48 h),effect on cell cycle phase distribution (HeLa cells [2]; 72 h),inhibition at 10 µM (HeLa),inhibition at 30 µM (HeLa),IC50 (HeLa),inhibition at 10 µM (C33A),inhibition at 30 µM (C33A),inhibition at 10 µM (MDA-MB-361),inhibition at 30 µM (MDA-MB-361),effect on tubulin polymerization (tubulin),caspase-8 activity (caspase-8; 72 h),inhibition at 10 µM (hTERT-HME1),inhibition at 30 µM (hTERT-HME1),inhibition at 10 µM (A2780),inhibition at 30 µM (A2780),LDH release (HeLa cells [1]; 3.0 or 5.0 μM),caspase-8 activity (caspase-8; 24 h),"IC50 (hTERT-HME1; hTERT-HME1, 72 h, read-out: calculated IC50 value)"
"C[C@]12CC[C@H]3[C@@H](CCC4=CC(=O)CC[C@@H]43)[C@@H]1CC[C@@H]2O [Compound 1, 19-nortestosterone, reference compound]",substantial LDH release,significant decrease in the G1 and a moderate but significant increase in the G2/M phase cell population,these changes became more pronounced,concentration-dependent accumulation of hypodiploid cells,99.5 ± 0.2%,99.5 ± 0.3%,0.65 µM,< 20%,25.2 ± 1.7%,< 20%,< 20%,significant acceleration of tubulin polymerization,less pronounced,16.9 ± 1.2%,37.1%,< 20%,< 20%,,,
C[C@]12CC[C@H]3[C@@H](CCC4=CC(=O)CC[C@@H]43)[C@@H]1CC[C@H]2Cl [Compound 3],,did not have any remarkable effect on cell cycle,substantially elevated increase of the subG1 population at the expense of G1 cells,,95.9 ± 0.3%,95.1 ± 0.5%,1.21 µM,< 20%,61.7 ± 1.7%,< 20%,21.8 ± 2.5%,significant acceleration of tubulin polymerization,,76.2 ± 0.5%,99.9 ± 0.1%,< 20%,32.7 ± 1%,significant,no change,4.63 µM
